Measurements reported in patent US9745305B2, “Modulators of methyl modifying enzymes, compositions and uses thereof” (Constellation Pharmaceuticals, Inc., priority 2013, dated 2017).

Tests used:
[1] = target: EZH2 (Homo sapiens, UniProt Q15910); assay: EZH2 Assay (3H SAM methyl transfer, rPRC2, FlashPlate); format: biochemical; conditions: rPRC2, biotinylated oligonucleosomes, 0.2 μM 3H SAM, 2 nM EZH2
Procedure, shortened: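 rPRC2 (2 nM EZH2) was preincubated 20 min with compound (80 to 0.16 μM, 10 points), then reacted 60 min with 0.2 μM ³H-SAM, 0.2 μM biotinylated oligonucleosomes and 3.6 μM H3K27me3 peptide at pH 8.5. Methylated product was captured on SAV FlashPlates and counted, and IC50 came from a 4-parameter fit.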

[2] = target: Y641N EZH2 (Homo sapiens, UniProt Q15910, Y641N); assay: Assay for Y641N EZH2 (as the EZH2 assay, H3K27Me2 oligonucleosomes as substrate); format: biochemical; conditions: Y641N EZH2 mutant, reconstituted H3K27Me2 oligonucleosomes as substrate
Sequence of Y641N EZH2 (Q15910 whole entry Y641N): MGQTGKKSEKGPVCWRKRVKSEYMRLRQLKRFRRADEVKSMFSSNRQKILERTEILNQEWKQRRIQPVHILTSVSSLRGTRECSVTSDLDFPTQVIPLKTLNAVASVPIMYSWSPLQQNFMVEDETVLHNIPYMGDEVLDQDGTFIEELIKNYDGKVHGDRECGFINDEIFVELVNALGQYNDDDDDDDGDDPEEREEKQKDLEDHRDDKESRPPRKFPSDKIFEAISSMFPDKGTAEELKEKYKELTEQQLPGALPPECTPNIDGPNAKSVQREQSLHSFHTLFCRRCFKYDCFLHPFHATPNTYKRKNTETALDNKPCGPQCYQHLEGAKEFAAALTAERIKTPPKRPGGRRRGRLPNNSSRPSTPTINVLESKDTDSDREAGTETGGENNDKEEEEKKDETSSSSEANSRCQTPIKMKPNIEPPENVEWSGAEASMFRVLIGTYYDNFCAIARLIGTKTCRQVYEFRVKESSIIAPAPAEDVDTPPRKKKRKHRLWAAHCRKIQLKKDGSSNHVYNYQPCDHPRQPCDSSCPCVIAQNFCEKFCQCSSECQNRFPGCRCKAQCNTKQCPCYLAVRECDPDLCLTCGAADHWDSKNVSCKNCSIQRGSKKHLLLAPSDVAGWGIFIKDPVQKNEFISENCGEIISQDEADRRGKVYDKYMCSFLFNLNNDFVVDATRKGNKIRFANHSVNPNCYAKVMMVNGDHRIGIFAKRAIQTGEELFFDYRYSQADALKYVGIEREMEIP
Sequence of Y641N EZH2 (O75530 whole entry partner): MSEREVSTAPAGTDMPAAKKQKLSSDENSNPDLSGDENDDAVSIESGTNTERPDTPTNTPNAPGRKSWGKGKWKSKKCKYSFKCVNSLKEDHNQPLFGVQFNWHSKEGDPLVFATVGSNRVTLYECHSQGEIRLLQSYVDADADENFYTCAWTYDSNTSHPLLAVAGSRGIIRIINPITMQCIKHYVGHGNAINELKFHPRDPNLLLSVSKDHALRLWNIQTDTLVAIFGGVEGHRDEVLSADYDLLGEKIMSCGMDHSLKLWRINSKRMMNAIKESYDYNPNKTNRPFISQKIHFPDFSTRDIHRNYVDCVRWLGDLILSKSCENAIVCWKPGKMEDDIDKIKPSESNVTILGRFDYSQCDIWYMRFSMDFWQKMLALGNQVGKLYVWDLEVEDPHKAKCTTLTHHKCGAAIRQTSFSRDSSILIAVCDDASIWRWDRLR
Sequence of Y641N EZH2 (Q15022 whole entry partner): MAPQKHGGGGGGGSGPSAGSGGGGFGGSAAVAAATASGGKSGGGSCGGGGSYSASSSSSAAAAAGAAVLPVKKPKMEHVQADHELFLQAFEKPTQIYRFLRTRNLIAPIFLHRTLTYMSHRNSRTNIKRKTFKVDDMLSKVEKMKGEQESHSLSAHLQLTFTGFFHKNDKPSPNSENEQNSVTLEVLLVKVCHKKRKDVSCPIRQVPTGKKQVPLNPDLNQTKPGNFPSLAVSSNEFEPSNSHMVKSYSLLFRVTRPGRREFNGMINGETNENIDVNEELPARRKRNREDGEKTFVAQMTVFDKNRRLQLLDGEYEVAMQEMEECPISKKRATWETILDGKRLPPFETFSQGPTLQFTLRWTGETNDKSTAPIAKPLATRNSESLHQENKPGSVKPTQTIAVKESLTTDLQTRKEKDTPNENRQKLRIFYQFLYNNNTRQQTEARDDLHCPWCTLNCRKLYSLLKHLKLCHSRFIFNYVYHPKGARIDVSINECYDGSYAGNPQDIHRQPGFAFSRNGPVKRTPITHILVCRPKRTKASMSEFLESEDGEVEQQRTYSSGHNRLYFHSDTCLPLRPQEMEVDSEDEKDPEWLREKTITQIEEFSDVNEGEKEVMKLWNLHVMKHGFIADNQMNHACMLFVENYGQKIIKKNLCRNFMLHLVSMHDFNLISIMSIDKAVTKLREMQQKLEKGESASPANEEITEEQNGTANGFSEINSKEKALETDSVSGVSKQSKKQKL
Procedure, shortened: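 rPRC2 (2 nM EZH2) with 0.2 μM reconstituted H3K27Me2 biotinylated oligonucleosomes, 3.6 μM H3K27me3 peptide, 0.2 μM ^3H SAM in Tris pH 8.5; compounds (80 to 0.16 μM, 2-fold) pre-incubated 20 min, reaction 60 min, SAH/EDTA quench. Tritiated product captured on streptavidin plates, scintillation counted; IC50 from 4-parameter fit.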

[3] = test system: H3K27me3 mark in Hela cells expressing wild type EZH2; assay: H3K27me3 MSD Hela Assay; format: cell-based; conditions: Homo sapiens, HeLa, 96 h, read-out: H3K27me3_MSD_HeLa (EC50)
Method: H3K27me3 MSD Hela Assay. Trypsinized HeLa cells were counted and diluted in 10% DMEM (Life Technologies, Cat. #10569) to 5000 cells/75 μL. Seventy-five μL of cells were place in each well of a 96-well flat-bottomed plate and incubated at 37° C. for 4 hours. Twenty-five μL of test compound (at various concentrations) was added to the cells and incubation continued at 37° C. for 96 hours. Media was then removed and the cells rinsed once with ice cold PBS. Forty μL of ice-cold MSD Buffer AT (10 mM HEPES, pH 7.9, 5 mM MgCl2, 0.25M sucrose, Benzonase (1:10000), 1% Triton X-100 supplemented with fresh 1× Protease Inhibitor cocktail and 1 mM 4-(2-Aminoethyl)benzenesulfonyl fluoride hydrochloride (AEBSF)) was added to each well and the plates placed on ice for 30 minutes. Ten μL of 5M NaCl was then added to each well and incubation on ice continued for another 15 minutes. The material in each well was suspended pipetting up and down and then transferred to a new 96 well plate. The emptied wells were rinsed with 150 uL ice-cold 20 mM Tris pH 7.5, 1 mM EDTA, 1 mM EGTA, supplemented with fresh 1× Protease Inhibitor cocktail and 1 mM AEBSF (“NO salt NO detergent buffer) and transferred to the respective wells in the new plate. Three hundred μL of NO Salt NO detergent buffer was then added to each well of lysates and the plates frozen at −80° C.
On the same day, an appropriate number of MSD standard bind 96-well plates were coated with 30 μL/well of total H3 capture antibody (Millipore, Cat # MAB3422) at 1 μg/mL concentration in PBS. The antibody solution was evenly distributed first by tapping gently on the sides of the plates and then by shaking the plates for a few minutes at 1000 rpm. Antibody coated plates were stored at 4° C. overnight.
The next day the lysates are thawed to RT. The antibody coated MSD plates are washed 3× with TBS-T (Tris-buffered saline (Fisher Scientific, Cat #BP2471-1)+0.2% Tween-20). One-hundred fifty μL of 5% Blocker A in TBS-T is added to each well. The wells are covered and shaken on a shaker at RT for one hour. The Blocker A step is repeated a second time. After removing the blocker, 25 μL of cell lysate is transferred into each antibody coated well. The plates are shaken for 2 hours at RT, the lysate removed and the plates again washed with Blocker A in TBS-T. Twenty-five μL of appropriate freshly prepared antibody mix (including both primary and secondary antibodies) is added to each well and the plates shaken for 1 hour at RT.
Both H3 antibodies were obtained from Cell Signalling (Cat #s 4499 and 9733). The goat anti-rabbit antibody was obtained from Meso-Scale Discovery (Cat #R32AB-1).
The antibody mix was then removed and the wells washed with Blocker A. One hundred-fifty μL of freshly prepared 1×MSD Read Buffer (Meso-Scale Discovery; Cat #R927C-2) was then added to each well and the plates read on a MSD Sector 2400 Plate Reader.
Data was analyzed using Assay Assistant (Constellation Pharmaceuticals In-house product) and Activity Base (IDBS Ltd, Surrey, UK) template. Data files were imported to Assay Assistant and assay conditions were specified. A unique Analysis ID was created and the data files exported to Activity Base. An analysis template was created on Activity Base to measure dose-dependent inhibition of H3K27me3 mark and cell viability respectively. Readout of DMSO wells were used to normalize the data. Resulting curves were fitted using Activity base software Model 205 (IDBS Ltd, Surrey, UK). The data was checked for quality, validated and integrated in excel format using SARview (IDBS Ltd, Surrey, UK).

Sequence of EZH2 (Q15910 whole entry): as the sequence (Q15910 whole entry Y641N) above, with N641Y counted along it
Sequence of EZH2 (O75530 whole entry partner): as the sequence (O75530 whole entry partner) above
Sequence of EZH2 (Q15022 whole entry partner): as the sequence (Q15022 whole entry partner) above

Structure (SMILES): COc1cc(C)[nH]c(=O)c1CNC(=O)c1c(C)c(C(C)c2ccn(C)c(=O)c2)n2ncccc12 (stereo not drawn) [Compound 110, N-((4-methoxy-6-methyl-2-oxo-1,2-dihydropyridin-3-yl)methyl)-6-methyl-7-(1-(1-methyl-2-oxo-1,2-dihydropyridin-4-yl)ethyl)pyrrolo[1,2-b]pyridazine-5-carboxamide]
- IC50 [1]: < 100 nM
- IC50 [2]: 100 to 1000 nM
- EC50 [3]: 2000 to 10000 nM

Structure (SMILES): COc1cc(C)[nH]c(=O)c1CNC(=O)c1c(C)c(-c2c(C)noc2C)n2ncccc12 [Compound 114, 7-(3,5-dimethylisoxazol-4-yl)-N-((4-methoxy-6-methyl-2-oxo-1,2-dihydropyridin-3-yl)methyl)-6-methylpyrrolo[1,2-b]pyridazine-5-carboxamide]
- IC50 [1]: < 100 nM
- IC50 [2]: < 100 nM
- EC50 [3]: < 400 nM
